No end group written: not given here.
Columns and labels:
[1] = system: patient, a child with symptoms of autism; experiment: Intravenous secretin infusion in a child with symptoms of autism (Example 1); format: in vivo, human
Experimental: The present invention will be better understood from the following examples which are given by way of illustration and not by way of limitation. The patient, the same in both examples, is a child with symptoms of autism.
When the patient was […], the secretin was administered by way of an infusion as part of an upper gastrointestinal endoscopy. The secretin was used in this diagnostic procedure at the request of the patient's parents, one of which is an inventor of the present invention. The secretin used in this procedure is known as Secretin-Ferring available from Ferring Laboratories, Inc., Suffern, N.Y. (See Appendix A). The secretin was dissolved in a […] solution of sodium chloride and administered in a dosage of 2 clinical units (CU) per kilogram (kg) body weight by intravenous injection over one minute. (I.E. 30 IU IV for approximately 15 kilograms of body weight.)
The diagnostic tests performed on the patient during this procedure also indicated gastric inflammation. […] The following Table I summarizes the improvements observed in the patient within 3 weeks after the infusion of secretin.
Biomedical changes were also measured in the patient.
At the request of the patient's parents, a second infusion of secretin was performed about 9 months after the first infusion, and a third infusion of secretin was performed about three months after the second infusion.

[2] = system: patient, a child with symptoms of autism; experiment: Daily transdermal secretin with DMSO in the same patient (Example 2); format: in vivo, human; settings: about 15 CU daily
Experimental: At the time of this treatment, the patient was […]. Secretin was administered transdermally using pharmaceutical grade dimethyl sulfoxide (DMSO) (generally 99.9% pure) available from Clinic Service Co., Box 2512, Hemet Calif. 92543. The secretin (Secretin-Ferring) was administered daily in a dosage of about 75 CU over a five day period (i.e., about 15 CU daily) For each treatment, about 4 drops of DMSO were placed onto the skin of the patient, about 15 CU of the crystalline secretin was placed onto the DMSO, and the composition was rubbed into the skin.

[3] = system: abnormal opioid peptides; settings: autistic children responding to casein free and gluten free diet, after the secretin infusion; cited from earlier work

## secretin (HSDGTFTSELSRLRDSARLQRLLQGLV-NH2; ends and bridges not checked; UniProt P63298 33-59, looked up) [polypeptide hormone secreted by the mucosa of the duodenum and upper jejunum; used as Secretin-Ferring from Ferring Laboratories]
[1]; after the first infusion
  time at which the rate of the patient's progress appeared to decrease: about 5 weeks
[1]; after the treatment
  perfusion of the right posterior parietal and right temporal lobes (SPECT scan): improved
[1]; second infusion about 9 months after the first, third about three months after the second
  results of second and third infusions: achieved the same results
[1]; within 3 weeks after infusion, before: did not imitate
  imitation of commands: Will imitate almost any multi-step command.
[1]; within 3 weeks after infusion, before: limited diet preferences
  diet preferences: No Change
[1]; within 3 weeks after infusion, before: no apparent connections
  connections made between language and objects: Many connections made between new language
[1]; within 3 weeks after infusion, before: watch videos
  interaction with videos: Now, gets “involved” interactively with their videos.
[1]; within days after the administration, no change in diet
  chronic abnormal bowel movements: became normal
[2]
  overall improvements: even more dramatic and significant improvements
[3]
  abnormal opioid peptides: the peptides disappeared
